Measured values reported in ChEMBL document CHEMBL1159175, “Thiophenoxy peptides: A new class of HIV replication inhibitors” (Bioorg Med Chem Lett, 1996).
pIC50: −log10 of the molar value. Square brackets hold non-standard residues; d marks the D form. Peptide text beside a SMILES is read from it. * marks the point of attachment. Fmoc = O=C(OCC1c2ccccc2-c2ccccc21)*; Gly(SPh) = N[C@@H](Sc1ccccc1)C(=O)O

Key:
MT4 [1] = assay: In vitro antiviral activity against HIV-1 replication in MT-4 cells was determined by 50% inhibition of syncytia formation: Inactive; format: functional, cell-based, Homo sapiens
MT4 [2] = assay: In vitro antiviral activity against HIV-1 replication in MT-4 cells was determined by 50% inhibition of syncytia formation: Inactive / toxic; format: functional, cell-based, Homo sapiens
MT4 [3] = assay: In vitro antiviral activity against HIV-1 replication in MT-4 cells was determined by 50% inhibition of syncytia formation; format: functional, cell-based; conditions: Homo sapiens
[4] = Therapeutic index was determined by the ratio of ID50/IC50 (ID50: Dose required to cause death of 50% of uninfected MT-4 cells); format: cell-based, MT4; conditions: human, MT-4 cells (uninfected, for ID50); read-out: TI

Compound	IC50 (MT4 [1])	IC50 (MT4 [2])	pIC50 (MT4 [3])	selectivity ratio [4]
C=CCOC(=O)C(NC(=O)C(CC(C)C)NC(=O)OC(C)(C)C)Sc1ccccc1 (stereo not given)	Not Active	–	–	–
CC(C)CC(NC(=O)OC(C)(C)C)C(=O)NC(Sc1ccccc1)C(=O)O (stereo not given)	Not Active	–	–	–
CC[C@H](C)[C@H](NC(=O)OCC1c2ccccc2-c2ccccc21)C(=O)N[C@@H](CCCN=C(N)N)C(=O)N[C@@H](CCCCN)C(=O)N[C@H](C(=O)N[C@@H](CC(C)C)C(=O)N[C@@H](Sc1ccccc1)C(=O)N[C@@H](CC(C)C)C(=O)N[C@@H](CC(=O)O)C(=O)NCC(N)=O)[C@@H](C)CC (Fmoc-IRKIL[Gly(SPh)]LDG-NH2)	–	Toxic	–	–
CC[C@H](C)[C@H](NC(=O)CNC(=O)[C@H](CC(=O)O)NC(=O)[C@H](CC(C)C)NC(=O)[C@@H](NC(=O)[C@H](CC(C)C)NC(=O)[C@@H](NC(=O)[C@H](CCCCN)NC(=O)[C@H](CCCN=C(N)N)NC(=O)[C@@H](NC(=O)OCC1c2ccccc2-c2ccccc21)[C@@H](C)CC)[C@@H](C)CC)Sc1ccccc1)C(=O)O (Fmoc-IRKIL[Gly(SPh)]LDGI-OH)	–	–	4.00	10
CC[C@H](C)[C@H](N)C(=O)N[C@@H](CCCN=C(N)N)C(=O)N[C@@H](CCCCN)C(=O)N[C@H](C(=O)N[C@@H](CC(C)C)C(=O)N[C@@H](Sc1ccccc1)C(=O)N[C@@H](CC(C)C)C(=O)N[C@@H](CC(=O)O)C(=O)NCC(N)=O)[C@@H](C)CC (H-IRKIL[Gly(SPh)]LDG-NH2)	–	–	5.30	50
CC[C@H](C)[C@H](N)C(=O)N[C@@H](CCCN=C(N)N)C(=O)N[C@@H](CCCCN)C(=O)N[C@H](C(=O)N[C@@H](CC(C)C)C(=O)N[C@@H](Sc1ccccc1)C(=O)N[C@@H](CC(C)C)C(=O)N[C@@H](CC(=O)O)C(=O)NCC(=O)N[C@H](C(=O)O)[C@@H](C)CC)[C@@H](C)CC (H-IRKIL[Gly(SPh)]LDGI-OH)	–	–	5.00	10
H-IRKILFLDGI-OH	Not Active	–	–	–
